Patent US20260041095A1, “A PRESERVATION METHOD” (AnalytiCon Discovery - Zweigniederlassung der BRAIN Biotech …, priority 2022, published 2026)
In brackets after ≈: the same amount, converted by molar mass.

Columns and labels:
Type in all cases: cell-based
Asaia siamensis SUN03 = assay: Antimicrobial activity (MIC), Asaia siamensis SUN03; details: potato dextrose broth pH 3.8, visual evaluation
[1] = test system: Alicyclobacillus acidoterrestris DSM 2498; assay: Antimicrobial activity (MIC), Alicyclobacillus acidoterrestris DSM 2498; details: DSM2498, potato dextrose broth pH 3.8, visual evaluation, read-out: Minimal Inhibitory Concentration (MIC)
[2] = test system: Aspergillus brasiliensis DSM 1988; assay: Antimicrobial activity (MIC), Aspergillus brasiliensis DSM 1988; details: DSM1988, potato dextrose broth pH 3.8, visual evaluation, read-out: Minimal Inhibitory Concentration (MIC)
[3] = test system: Bacillus licheniformis DSM 13; assay: Antimicrobial activity (MIC), Bacillus licheniformis DSM 13; details: DSM13, potato dextrose broth pH 3.8, visual evaluation, read-out: Minimal Inhibitory Concentration (MIC)
Brettanomyces sp SUN08 = assay: Antimicrobial activity (MIC), Brettanomyces sp SUN08; details: potato dextrose broth pH 3.8, visual evaluation, read-out: Minimal Inhibitory Concentration (MIC)
Byssochlamys nivea SUN10 = assay: Antimicrobial activity (MIC), Byssochlamys nivea SUN10; details: Paecilomyces niveus, potato dextrose broth pH 3.8, visual evaluation, read-out: Minimal Inhibitory Concentration (MIC)
[4] = test system: Candida albicans ATCC10231; assay: Antimicrobial activity (MIC), Candida albicans ATCC10231; details: potato dextrose broth pH 3.8, visual evaluation, read-out: Minimal Inhibitory Concentration (MIC)
[5] = test system: Candida parapsilosis ATCC 20384; assay: Antimicrobial activity (MIC), Candida parapsilosis ATCC 20384; details: Lodderomyces parapsilosis, ATCC20384, potato dextrose broth pH 3.8, visual evaluation, read-out: Minimal Inhibitory Concentration (MIC)
[6] = test system: Candida parapsilosis SUN05; assay: Antimicrobial activity (MIC), Candida parapsilosis SUN05; details: Lodderomyces parapsilosis, potato dextrose broth pH 3.8, visual evaluation, read-out: Minimal Inhibitory Concentration (MIC)
[7] = test system: Clostridium perfringens DSM756; assay: microbe, parasite or virus in culture; details: DSM756, pH 3.8, read-out: Minimal Inhibitory Concentration (MIC)
[8] = test system: Clostridium sporogenes ATCC19404; assay: Antimicrobial activity (MIC), Clostridium sporogenes ATCC19404; details: potato dextrose broth pH 3.8, visual evaluation, read-out: Minimal Inhibitory Concentration (MIC)
Method: Compounds are dissolved at a concentration of 20 mg/mL using 100% DMSO. • Preculture: yeast and bacteria are plated on potato dextrose agar, resuspended in potato dextrose broth and CFU via OD measurement determined; adjusting CFU of the strain in PDB pH 3.8 • Preculture: for mycel forming fungi spores were directly used after thawing of cryopreserved stocks of known titre • Final titre used for the assay: Yeast strains 5*10^3 CFU/ml, Bacteria 1*10^6 CFU/ml, Fungi (spores) 5*10^4 CFU/ml • Potato dextrose broth pH 3.8 was used as assay matrix • 500 ppm (0.05%) of the compounds were screened (final DMSO 2.5% (v/v)) • Volume: 100 μl in 96-well format • Positive controls: potassium sorbate, sodium benzoate & triclosan • 28° C. to 30° C., static incubation • Incubation time depending on spoilage organism between 2 and 8 days • Visual evaluation (per eye, for fungi with binocular magnification)

[9] = test system: Corynebacterium xerosis DSM 20743; assay: Antimicrobial activity (MIC), Corynebacterium xerosis DSM 20743; details: DSM20743, potato dextrose broth pH 3.8, visual evaluation, read-out: Minimal Inhibitory Concentration (MIC)
[10] = test system: Dekkera naardenensis CBS 6115; assay: Antimicrobial activity (MIC), Dekkera naardenensis CBS 6115; details: Brettanomyces naardenensis, CBS6115, potato dextrose broth pH 3.8, visual evaluation, read-out: Minimal Inhibitory Concentration (MIC)
[11] = test system: Lactobacillus paracasei ssp. paracasei DSM 46331; assay: Antimicrobial activity (MIC), Lactobacillus paracasei ssp. paracasei DSM 46331; details: Lacticaseibacillus paracasei, DSM46331, potato dextrose broth pH 3.8, visual evaluation, read-out: Minimal Inhibitory Concentration (MIC)
[12] = test system: Leuconostoc lactis DSM 20202; assay: Antimicrobial activity (MIC), Leuconostoc lactis DSM 20202; details: DSM20202, potato dextrose broth pH 3.8, visual evaluation, read-out: Minimal Inhibitory Concentration (MIC)
[13] = test system: Leuconostoc mesenteroides DSM 20343; assay: Antimicrobial activity (MIC), Leuconostoc mesenteroides DSM 20343; details: DSM20343, potato dextrose broth pH 3.8, visual evaluation, read-out: Minimal Inhibitory Concentration (MIC)
[14] = test system: Malassezia furfur DSM 6170; assay: Antimicrobial activity (MIC), Malassezia furfur DSM 6170; details: DSM6170, potato dextrose broth pH 3.8, visual evaluation, read-out: Minimal Inhibitory Concentration (MIC)
[15] = test system: Neosartorya fischeri SUN09; assay: Antimicrobial activity (MIC), Neosartorya fischeri SUN09; details: Aspergillus fischeri, potato dextrose broth pH 3.8, visual evaluation, read-out: Minimal Inhibitory Concentration (MIC)
[16] = test system: Penicillium expansum DSM 62841; assay: Antimicrobial activity (MIC), Penicillium expansum DSM 62841; details: DSM62841, potato dextrose broth pH 3.8, visual evaluation, read-out: Minimal Inhibitory Concentration (MIC)
Penicillium paneum SUN04 = assay: Antimicrobial activity (MIC), Penicillium paneum SUN04; details: potato dextrose broth pH 3.8, visual evaluation, read-out: Minimal Inhibitory Concentration (MIC)
[17] = test system: Saccharomyces cerevisiae DSM 2548; assay: Antimicrobial activity (MIC), Saccharomyces cerevisiae DSM 2548; details: DSM2548, potato dextrose broth pH 3.8, visual evaluation, read-out: Minimal Inhibitory Concentration (MIC)
[18] = test system: Saccharomyces cerevisiae SUN01; assay: Antimicrobial activity (MIC), Saccharomyces cerevisiae SUN01; details: potato dextrose broth pH 3.8, visual evaluation, read-out: Minimal Inhibitory Concentration (MIC)
[19] = test system: Saccharomyces cerevisiae SUN06; assay: Antimicrobial activity (MIC), Saccharomyces cerevisiae SUN06; details: potato dextrose broth pH 3.8, visual evaluation, read-out: Minimal Inhibitory Concentration (MIC)
[20] = test system: Yarrowia lipolytica DSM 70561; assay: Antimicrobial activity (MIC), Yarrowia lipolytica DSM 70561; details: DSM70561, potato dextrose broth pH 3.8, visual evaluation, read-out: Minimal Inhibitory Concentration (MIC)
[21] = test system: Zygosaccharomyces bailii DSM 70834; assay: Antimicrobial activity (MIC), Zygosaccharomyces bailii DSM 70834; details: DSM70834, potato dextrose broth pH 3.8, visual evaluation, read-out: Minimal Inhibitory Concentration (MIC)
[22] = test system: Zygosaccharomyces bailli SUN02; assay: Antimicrobial activity (MIC), Zygosaccharomyces bailli SUN02; details: potato dextrose broth pH 3.8, visual evaluation, read-out: Minimal Inhibitory Concentration (MIC)
[23] = test system: Zygosaccharomyces bailli SUN07; assay: Antimicrobial activity (MIC), Zygosaccharomyces bailli SUN07; details: potato dextrose broth pH 3.8, visual evaluation, read-out: Minimal Inhibitory Concentration (MIC)
[24] = test system: Zygosaccharomyces rouxii DSM 7525; assay: Antimicrobial activity (MIC), Zygosaccharomyces rouxii DSM 7525; details: DSM7525, potato dextrose broth pH 3.8, visual evaluation, read-out: Minimal Inhibitory Concentration (MIC)
[25] = test system: Bacillus subtilis ATCC 6633; assay: Antimicrobial activity (MIC), Bacillus subtilis ATCC 6633; details: ATCC6633, potato dextrose broth pH 3.8, visual evaluation, read-out: Minimal Inhibitory Concentration (MIC)
[26] = test system: Enterococcus faecalis ATCC 7080; assay: Antimicrobial activity (MIC), Enterococcus faecalis ATCC 7080; details: ATCC7080, potato dextrose broth pH 3.8, visual evaluation, read-out: Minimal Inhibitory Concentration (MIC)
[27] = test system: Gluconacetobacter liquefaciens DSM 5603; assay: Antimicrobial activity (MIC), Gluconacetobacter liquefaciens DSM 5603; details: DSM5603, potato dextrose broth pH 3.8, visual evaluation, read-out: Minimal Inhibitory Concentration (MIC)

| SMILES | MIC (Brettanomyces sp SUN08) [µg/mL] | MIC (Byssochlamys nivea SUN10) [µg/mL] | MIC [6] [µg/mL] | MIC [8] [µg/mL] | MIC [12] [µg/mL] | MIC [15] [µg/mL] | MIC (Penicillium paneum SUN04) [µg/mL] | MIC [18] [µg/mL] | MIC [19] [µg/mL] | MIC [22] [µg/mL] | MIC [23] [µg/mL] | further results |
| --- | --- | --- | --- | --- | --- | --- | --- | --- | --- | --- | --- | --- |
| CCCCCC(O)CC(=O)O[C@H]1[C@H](O[C@H]2[C@H](O)[C@@H](O)[C@H](OCC(O)CCCCCCCCCCCCC(O)C(=O)O)O[C@@H]2COC(C)=O)O[C@H](CO)[C@@H](O)[C@@H]1O (stereo partly shown) [NP-018256] | ≤ 125 | ≤ 125 | ≤ 125 | 80 (≈ 98.4 µM) | 240 (≈ 295 µM) | ≤ 125 | ≤ 125 | ≤ 125 | ≤ 125 | ≤ 125 | 500 (≈ 615 µM) | Minimal Inhibitory Concentration (MIC) (Asaia siamensis SUN03): inact.; MIC [1]: 240 µg/mL (≈ 295 µM); MIC [2]: 240 µg/mL (≈ 295 µM); MIC [3]: 240 µg/mL (≈ 295 µM); MIC [4]: 80 µg/mL (≈ 98.4 µM); MIC [5]: 240 µg/mL (≈ 295 µM); MIC [7]: 80 µg/mL (≈ 98.4 µM); MIC [9]: 1200 µg/mL (≈ 1480 µM); MIC [10]: 80 µg/mL (≈ 98.4 µM); MIC [11]: 240 µg/mL (≈ 295 µM); MIC [13]: 240 µg/mL (≈ 295 µM); MIC [14]: 80 µg/mL (≈ 98.4 µM); MIC [16]: 240 µg/mL (≈ 295 µM); MIC [17]: 240 µg/mL (≈ 295 µM); MIC [20]: 240 µg/mL (≈ 295 µM); MIC [21]: 80 µg/mL (≈ 98.4 µM); MIC [24]: 80 µg/mL (≈ 98.4 µM) |
| O=C(O)CCCCCCCCCCCCCC(O)CO[C@@H]1O[C@H](COC(=O)O)[C@@H](O[C@@H]2O[C@H](CO)[C@@H](O)[C@H](O)[C@H]2OC(=O)CC(O)CCO)[C@H](O)[C@H]1O (stereo partly shown) [NP-018250] | 125 (≈ 162 µM) | 125 (≈ 162 µM) | 125 (≈ 162 µM) | 250 (≈ 323 µM) | 250 (≈ 323 µM) | 125 (≈ 162 µM) | 125 (≈ 162 µM) | 125 (≈ 162 µM) | 125 (≈ 162 µM) | 125 (≈ 162 µM) | 125 (≈ 162 µM) | MIC (Asaia siamensis SUN03; read-out: Minimal Inhibitory Concentration (MIC)): ≤ 125 µg/mL; MIC [25]: 250 µg/mL (≈ 323 µM); MIC [26]: 250 µg/mL (≈ 323 µM); MIC [27]: 250 µg/mL (≈ 323 µM) |
